The values below come from patent US6030951A, “Chrysomycin derivative compounds and use as antitumor agents” (Mercian Corporation, priority 1996, dated 2000).

Values after ≈ are worked out from the molar mass of the structure shown. Like-named read-outs stand apart in the source and are kept apart here.

A short description of data set [1]: Solubility.
The test system of data set [2] is solid cancer cells. The experiment in a line: Growth-inhibiting activity against cultured solid cancer cells. Type of data set: cell-based, human. Particulars: for effectiveness against cells derived from tumors, particularly solid cancers: colic, mammary, pulmonary and gastric cancer, mammals, in particular human. As to the method:
(§1) Using various human cancer cells, the concentrations of test compounds which inhibits the growth of cancer cells by 50% were determined. Specifically, each of K562 (leukemic cell), HT29 (colic cancer), HT1080 (reticulogranuloma cell), MCF7 (mammary cancer cell), PC6 (pulmonary cancer cell) and MKN28 (gastric cancer cell) was added to a 96-well microtiter/plate at a density of 2-5×10^3 cells per well, and RPM11640 medium (phenol red-free) containing 10% FBS, together with a test compound, was added thereto. Then, this plate was incubated at 37° C. for 3 days in an atmosphere of air containing 5% CO2. Thereafter, 10 μl of WST-1 reagent [0.065% 2-(4-iodophenyl)-3-(4-nitrophenyl)-5-(2,4-disulfonyl)-2H-tetrazolium monosodium salt, 0.007% 1-methoxy-5-methylphenazium methylsulfate] was added to each well, and the plate was further incubated for 3 hours. Then, the absorbance of each well at 450 nm (with a reference wavelength of 650 nm) was measured with a plate reader.

The test system of data set [3] is HT29 (colic cancer). The experiment in a line: Inhibition of growth of human cancer cells (WST-1, 3 days). The settings on record: HT-29, 72 h, read-out: IC50 value. Type of data set: cell-based. As to the method:
as §1
(Tetrazolium dyes change colour on reduction, which living cells bring about.)

The test system of data set [4] is MKN28 (gastric cancer cell). The data set is described as above. Type of data set: cell-based. The settings on record: MKN-28, 72 h, read-out: IC50 value. How it is done:
as §1

Data set [5] has as its system K562 (leukemic cell). Described as above. The data set is classed as cell-based. Particulars: read-out: IC50 value. As to the method:
as §1

Data set [6] has as its system PC6 (pulmonary cancer cell). The data set is described as above. The settings on record: 72 h, read-out: IC50 value. The data set is classed as cell-based. How it is done: as §1
For data set [7], the system named is MCF7 (mammary cancer cell). Described as above. Particulars: read-out: IC50 value. Type of data set: cell-based. How it is done: as §1
For data set [8], the system named is tumor cells. Briefly: Growth-inhibiting activity against various types of tumor cells. The data set is classed as cell-based, human. Particulars: as compared with chrysomycins. How it is done: as §1
[9] abbreviates: organic solvents such as chloroform, acetone and methanol.

For the compound `COc1cc2c(oc(=O)c3cc(C)cc(OC)c32)c2c(C3OC(C)C(O)(C(C)=O)C3O)ccc(O)c12` (stereo not drawn) [Mer-1020dA], the Solubility entry was “Soluble” in data set [1] (setting [9]) and “insoluble” in data set [1] (water). Besides, the “growth-inhibiting activity against all types of cultured solid cancers used for testing” value in data set [2] (all types tested) is listed as “significantly excellent growth-inhibiting activity”. Moreover, in data set [2], the “effectiveness against cells derived from tumors, particularly solid cancers” value (“effectiveness against cells derived” for short) was “remarkable effectiveness”. For the same compound, the IC50 in data set [3] (HT29, 3 days, 37° C.) was found to be 0.075 µg/mL (≈ 0.152 µM); in data set [4] (MKN28, 3 days, 37° C.), 0.017 µg/mL (≈ 0.0344 µM); in data set [5] (72 h, K562, 3 days, 37° C.), 0.36 µg/mL (≈ 0.728 µM); in data set [6] (PC6, 3 days, 37° C.), 0.064 µg/mL (≈ 0.129 µM); in data set [7] (72 h, MCF7, 3 days, 37° C.) it was 0.032 µg/mL (≈ 0.0647 µM).

As to `C=Cc1cc(OC)c2c(c1)c(=O)oc1c2cc(OC)c2c(O)ccc(C3OC(C)C(O)(C(C)=O)C3O)c21` (stereo not drawn) [Mer-1020dD], the Solubility entry in data set [1] (setting [9]) is recorded as “Soluble”; in data set [1] (water), “insoluble”. Also, in data set [2], the “effectiveness against cells derived” value is “remarkable effectiveness”. Also, the IC50 is 0.15 µg/mL (≈ 0.296 µM) in data set [3] (HT29, 3 days, 37° C.); 1 µg/mL (≈ 1.97 µM) in data set [4] (MKN28, 3 days, 37° C.); 0.21 µg/mL (≈ 0.415 µM) in data set [5] (72 h, K562, 3 days, 37° C.); 2.5 µg/mL (≈ 4.94 µM) in data set [6] (PC6, 3 days, 37° C.); 0.6 µg/mL (≈ 1.18 µM) in data set [7] (72 h, MCF7, 3 days, 37° C.).

Regarding `C=Cc1cc(OC)c2c(c1)c(=O)oc1c2cc(OC)c2c(O)ccc(C3OC(C)C(O)C(C)(O)C3O)c21` (stereo not drawn) [Chrysomycin A, reference compound], the IC50 in data set [3] amounted to 0.84 µg/mL (≈ 1.65 µM); in data set [4] it was 0.144 µg/mL (≈ 0.283 µM); in data set [5] (K562, 72 h) it was 0.106 µg/mL (≈ 0.208 µM); in data set [6], 0.335 µg/mL (≈ 0.659 µM); in data set [7] (MCF7, 72 h), 0.53 µg/mL (≈ 1.04 µM).

Take `COc1cc2c(oc(=O)c3cc(C)cc(OC)c32)c2cccc(O)c12` [Mer-1020dE]: in data set [8], the “growth-inhibiting activity against various types of tumor cells” value is “lower as compared with chrysomycins”. In addition, the values for the Solubility entry in data set [1] (setting [9]) and in data set [1] (water) were “Soluble” and “insoluble”, respectively. The IC50 is 19 µg/mL (≈ 56.5 µM) in data set [3] (HT29, 3 days, 37° C.); 11 µg/mL (≈ 32.7 µM) in data set [4] (MKN28, 3 days, 37° C.); 8.1 µg/mL (≈ 24.1 µM) in data set [5] (72 h, K562, 3 days, 37° C.); 34 µg/mL (≈ 101 µM) in data set [6] (PC6, 3 days, 37° C.); 17 µg/mL (≈ 50.5 µM) in data set [7] (72 h, MCF7, 3 days, 37° C.).

Consider `COc1cc2c(oc(=O)c3cc(C)cc(OC)c32)c2c(C3OC(C)C(O)C(C)(O)C3O)ccc(O)c12` (stereo not drawn) [Chrysomycin B, reference compound], for which the IC50 in data set [3] (HT29, 3 days, 37° C.) came to 2.63 µg/mL (≈ 5.3 µM); in data set [4] (MKN28, 3 days, 37° C.), 2.65 µg/mL (≈ 5.34 µM); in data set [5] (72 h, K562, 3 days, 37° C.), 1.76 µg/mL (≈ 3.54 µM); in data set [6] (PC6, 3 days, 37° C.), 3.5 µg/mL (≈ 7.05 µM); in data set [7] (72 h, MCF7, 3 days, 37° C.) it was 2.58 µg/mL (≈ 5.2 µM).

`COc1cc2c(oc(=O)c3cc(C)cc(OC)c32)c2c(C3OC(C)C(=O)C(C)(O)C3O)ccc(O)c12` (stereo not drawn) [Mer-1020dB]: the values for the Solubility result in data set [1] (setting [9]) and in data set [1] (water) were “Soluble” and “insoluble”, respectively. In addition, the “effectiveness against cells derived” value in data set [2] is “remarkable effectiveness”. For the same compound, the concentration for half-maximal inhibition (IC50) is 0.35 µg/mL (≈ 0.708 µM) in data set [3] (HT29, 3 days, 37° C.); 0.35 µg/mL (≈ 0.708 µM) in data set [4] (MKN28, 3 days, 37° C.); 0.28 µg/mL (≈ 0.566 µM) in data set [5] (72 h, K562, 3 days, 37° C.); 0.11 µg/mL (≈ 0.222 µM) in data set [6] (PC6, 3 days, 37° C.); 0.35 µg/mL (≈ 0.708 µM) in data set [7] (72 h, MCF7, 3 days, 37° C.).

Regarding `C=Cc1cc(OC)c2c(c1)c(=O)oc1c2cc(OC)c2c(O)ccc(C3OC(C)C(=O)C(C)(O)C3O)c21` (stereo not drawn) [Mer-1020dC], the Solubility entry in data set [1] (setting [9]) is recorded as “Soluble”; in data set [1] (water) it was “insoluble”. Besides, in data set [2], the “effectiveness against cells derived” value was “remarkable effectiveness”. For the same compound, the IC50 in data set [3] (HT29, 3 days, 37° C.) stood at 0.1 µg/mL (≈ 0.197 µM); in data set [4] (MKN28, 3 days, 37° C.), 0.32 µg/mL (≈ 0.632 µM); in data set [5] (72 h, K562, 3 days, 37° C.), 0.11 µg/mL (≈ 0.217 µM); in data set [6] (PC6, 3 days, 37° C.), 0.03 µg/mL (≈ 0.0592 µM); in data set [7] (72 h, MCF7, 3 days, 37° C.) it was 0.42 µg/mL (≈ 0.829 µM).

Usually IC50 stands for the concentration needed to halve the response being measured.
